System: 349418-098-R-PDC complex spheroid viability
Assay: Anticancer human tumor 349418-098-R-PDC patient-derived lung adenocarcinoma cell line growth inhibition [RAS]
Settings: for viability, T/C: stronger effect = lower value
In short: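 Agents were tested in combination matrices in half-log decrements from a top concentration at or near clinical Cmax (10 microM if undetermined). Targets were multi-cell spheroids of tumour lines plus HUVEC and MSC stromal cells.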

[1] = curve of first compound, second compound 0.000949 µM
[2] = curve of first compound, second compound 0.003 µM
[3] = curve of first compound, second compound 0.00949 µM
[4] = curve of first compound, second compound 0.03 µM
[5] = curve of first compound, second compound 0.0949 µM
[6] = curve of first compound, second compound 0.3 µM
[7] = second compound 0.000949 µM, first compound 0.0316 µM
[8] = second compound 0.000949 µM, first compound 0.1 µM
[9] = second compound 0.000949 µM, first compound 0.316 µM
[10] = second compound 0.000949 µM, first compound 1 µM
[11] = second compound 0.000949 µM, first compound 3.16 µM
[12] = second compound 0.000949 µM, first compound 10 µM
[13] = second compound 0.003 µM, first compound 0.0316 µM
[14] = second compound 0.003 µM, first compound 0.1 µM
[15] = second compound 0.003 µM, first compound 0.316 µM
[16] = second compound 0.003 µM, first compound 1 µM
[17] = second compound 0.003 µM, first compound 3.16 µM
[18] = second compound 0.003 µM, first compound 10 µM
[19] = second compound 0.00949 µM, first compound 0.0316 µM
[20] = second compound 0.00949 µM, first compound 0.1 µM
[21] = second compound 0.00949 µM, first compound 0.316 µM
[22] = second compound 0.00949 µM, first compound 1 µM
[23] = second compound 0.00949 µM, first compound 3.16 µM
[24] = second compound 0.00949 µM, first compound 10 µM
[25] = second compound 0.03 µM, first compound 0.0316 µM
[26] = second compound 0.03 µM, first compound 0.1 µM
[27] = second compound 0.03 µM, first compound 0.316 µM
[28] = second compound 0.03 µM, first compound 1 µM
[29] = second compound 0.03 µM, first compound 3.16 µM
[30] = second compound 0.03 µM, first compound 10 µM
[31] = second compound 0.0949 µM, first compound 0.0316 µM
[32] = second compound 0.0949 µM, first compound 0.1 µM
[33] = second compound 0.0949 µM, first compound 0.316 µM
[34] = second compound 0.0949 µM, first compound 1 µM
[35] = second compound 0.0949 µM, first compound 3.16 µM
[36] = second compound 0.0949 µM, first compound 10 µM
[37] = second compound 0.3 µM, first compound 0.0316 µM
[38] = second compound 0.3 µM, first compound 0.1 µM
[39] = second compound 0.3 µM, first compound 0.316 µM
[40] = second compound 0.3 µM, first compound 1 µM
[41] = second compound 0.3 µM, first compound 3.16 µM
[42] = second compound 0.3 µM, first compound 10 µM
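Note: spheroids exposed to compound for seven days before viability readout.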

NC1c2ccccc2OC12CCN(c1cnc3c(N4CCCc5ncccc54)n[nH]c3n1)CC2 (configuration not stated) + CCn1c(-c2cc(N3CCN(C)CC3)cnc2C(C)OC)c2c3cc(ccc31)-c1csc(n1)CC(NC(=O)C1CC1C)C(=O)N1CCCC(N1)C(=O)OCC(C)(C)C2
IC50 [1]: > 10 µM | IC50 [2]: > 10 µM | IC50 [3]: > 10 µM | IC50 [4]: > 10 µM | IC50 [5]: > 10 µM | IC50 [6]: > 10 µM | viability, T/C [7]: 91.7% | viability, T/C [8]: 98.8% | viability, T/C [9]: 111% | viability, T/C [10]: 90.2% | viability, T/C [11]: 86.5% | viability, T/C [12]: 76.8% | viability, T/C [13]: 98.1% | viability, T/C [14]: 120% | viability, T/C [15]: 105% | viability, T/C [16]: 102% | viability, T/C [17]: 95.6% | viability, T/C [18]: 76.8% | viability, T/C [19]: 116% | viability, T/C [20]: 102% | viability, T/C [21]: 97.1% | viability, T/C [22]: 98% | viability, T/C [23]: 90.7% | viability, T/C [24]: 73.9% | viability, T/C [25]: 113% | viability, T/C [26]: 102% | viability, T/C [27]: 111% | viability, T/C [28]: 107% | viability, T/C [29]: 102% | viability, T/C [30]: 72.3% | viability, T/C [31]: 114% | viability, T/C [32]: 88% | viability, T/C [33]: 110% | viability, T/C [34]: 107% | viability, T/C [35]: 116% | viability, T/C [36]: 78.5% | viability, T/C [37]: 103% | viability, T/C [38]: 105% | viability, T/C [39]: 113% | viability, T/C [40]: 93.9% | viability, T/C [41]: 104% | viability, T/C [42]: 64.8%

Cc1nc(N2CCC3(CC2)COC(C)C3N)c(CO)nc1Sc1ccnc(N)c1Cl (configuration not stated)
viability, T/C (compound 0.0316 µM): 91.6% [middle of 4 runs] | viability, T/C (compound 0.1 µM): 102% [middle of 4 runs] | viability, T/C (compound 0.316 µM): 101% [middle of 4 runs] | viability, T/C (compound 3.16 µM): 100% [middle of 4 runs] | viability, T/C (compound 10 µM): 95.3% [middle of 4 runs] | IC50 (curve of compound): > 10 µM

Cc1nc(N2CCC3(CC2)COC(C)C3N)c(CO)nc1Sc1ccnc(N)c1Cl (configuration not stated) + CCn1c(-c2cccnc2C(C)OC)c2c3cc(ccc31)N1CCOC(CC(NC(=O)C(C(C)C)N(C)C(=O)C3(F)CCN(C(=O)C#CC(C)(C)N(C)C)CC3)C(=O)N3CCCC(N3)C(=O)OCC(C)(C)C2)C1
IC50 [1]: > 10 µM | IC50 [2]: > 10 µM | IC50 [3]: > 10 µM | IC50 [4]: > 10 µM | IC50 [5]: > 10 µM | IC50 [6]: > 10 µM | viability, T/C [7]: 97.9% | viability, T/C [8]: 86.4% | viability, T/C [9]: 102% | viability, T/C [10]: 103% | viability, T/C [11]: 101% | viability, T/C [12]: 89.5% | viability, T/C [13]: 102% | viability, T/C [14]: 91.9% | viability, T/C [15]: 119% | viability, T/C [16]: 96.7% | viability, T/C [17]: 97.1% | viability, T/C [18]: 108% | viability, T/C [19]: 103% | viability, T/C [20]: 106% | viability, T/C [21]: 106% | viability, T/C [22]: 99.8% | viability, T/C [23]: 118% | viability, T/C [24]: 90.5% | viability, T/C [25]: 119% | viability, T/C [26]: 107% | viability, T/C [27]: 99.3% | viability, T/C [28]: 110% | viability, T/C [29]: 115% | viability, T/C [30]: 91.5% | viability, T/C [31]: 98.5% | viability, T/C [32]: 98.9% | viability, T/C [33]: 105% | viability, T/C [34]: 87.9% | viability, T/C [35]: 101% | viability, T/C [36]: 100% | viability, T/C [37]: 83.7% | viability, T/C [38]: 89.3% | viability, T/C [39]: 100% | viability, T/C [40]: 87.8% | viability, T/C [41]: 101% | viability, T/C [42]: 77.4%

CCC(CC)c1cc(NC2CCC(N)C2)n2nccc2n1 (configuration not stated) + CCn1c(-c2cccnc2C(C)OC)c2c3cc(ccc31)N1CCOC(CC(NC(=O)C(C(C)C)N(C)C(=O)C3(F)CCN(C(=O)C#CC(C)(C)N(C)C)CC3)C(=O)N3CCCC(N3)C(=O)OCC(C)(C)C2)C1
IC50 [1]: 0.84 µM | IC50 [2]: 1.32 µM | IC50 [3]: 0.793 µM | IC50 [4]: 0.795 µM | IC50 [5]: 1.06 µM | IC50 [6]: 0.629 µM | viability, T/C [7]: 105% | viability, T/C [8]: 105% | viability, T/C [9]: 87.2% | viability, T/C [10]: 45.2% | viability, T/C [11]: 2.1% | viability, T/C [12]: 2.24% | viability, T/C [13]: 101% | viability, T/C [14]: 94.5% | viability, T/C [15]: 72.7% | viability, T/C [16]: 66.2% | viability, T/C [17]: 2.87% | viability, T/C [18]: 1.93% | viability, T/C [19]: 123% | viability, T/C [20]: 105% | viability, T/C [21]: 86% | viability, T/C [22]: 44.8% | viability, T/C [23]: 2.14% | viability, T/C [24]: 2.37% | viability, T/C [25]: 106% | viability, T/C [26]: 85.5% | viability, T/C [27]: 97.8% | viability, T/C [28]: 38.5% | viability, T/C [29]: 2.21% | viability, T/C [30]: 2.43% | viability, T/C [31]: 95.2% | viability, T/C [32]: 78.8% | viability, T/C [33]: 91.1% | viability, T/C [34]: 52.4% | viability, T/C [35]: 2.89% | viability, T/C [36]: 2.25% | viability, T/C [37]: 80% | viability, T/C [38]: 68.8% | viability, T/C [39]: 81.8% | viability, T/C [40]: 31.9% | viability, T/C [41]: 2.89% | viability, T/C [42]: 3.28%

From PubChem BioAssay AID2060904 (Molecular Pharmacology Branch, DTP, NCI, 2025)
